# Laboratory results reported in patent US20100286150A1, “LEVOSIMENDAN FOR USE IN TREATING CHRONIC VALVULAR DISEASE” (priority 2008, published 2010).
# Test system: dogs diagnosed with chronic valvular disease (CVD)
# Test: Double-blind placebo-controlled study of long-term efficacy, safety and survival in dogs with chronic valvular disease
# Format: in vivo
# Conditions: for Owner-reported symptom score (mean ± SD): score 0 (best) to 18 (worst), 0.05 mg/kg orally twice a day
# Experimental: A double-blind placebo-controlled study was conducted for evaluating the long-term efficacy and safety of levosimendan and its effect on long-term survival in dogs diagnosed with chronic valvular disease (CVD). Dogs were randomised to receive either 0.05 mg/kg of levosimendan (n=40) or placebo (n=40) orally twice a day for 5 months. All dogs were allowed to receive their background therapy (ACE-inhibitors, diuretics, beta-blockers and/or digoxin). Quality of life, symptoms of CVD, safety and mortality assessment were conducted throughout the study.
# Improvement in quality of life was determined by using a composite owner-reported symptom score (ORSS). ORSS is a composite variable that was calculated by summing scores for appetite, intolerance to exercise, daytime cough, nocturnal cough, and nocturnal restlessness. The owner-reported symptom score could range from 0 (best possible) to 18 (worst possible).
# [1] = 0.05 mg/kg orally twice a day for 5 months, added to standard therapy, vs placebo, FIG. 1
smiles,measurement,setting,value
"C[C@@H]1CC(=O)NN=C1c1ccc(NN=C(C#N)C#N)cc1 [levosimendan, (−)-enantiomer of [[4-(1,4,5,6-tetrahydro-4-methyl-6-oxo-3-pyridazinyl)phenyl]hydrazono]propanedinitrile]",safety,0.05 mg/kg orally twice a day for 5 months in dogs with CVD,No significant safety concerns
same,mortality,[1],significantly reduced mortality
same,survival,[1],prolonged survival
same,quality of life over time compared to baseline assessments (0 months),"owner-reported symptom score, 0.05 mg/kg orally twice a day for 5 months",significantly improved
same,Owner-reported symptom score (mean ± SD),time 0 months (baseline),5.6 ± 2.4
same,Owner-reported symptom score (mean ± SD),time 1 month,4.1 ± 3.2
same,Owner-reported symptom score (mean ± SD),time 3 months,4.4 ± 4.1
same,Owner-reported symptom score (mean ± SD),time 5 months,4.4 ± 3.4
